{"source": "patent US20170056561A1", "about": "“COMPOSITIONS FOR THE TREATMENT OF JOINTS” (CorMedix Inc., priority 2015, published 2017)", "key": {"[1]": {"system": "Pseudomonas aeruginosa (PAO1)", "assay": "Solution exposure of HA/taurolidine hydrogels to living cultures (bacteria kill)", "format": "cell-based", "settings": "20 μl early phase culture in 980 μl formulation", "description": "(§1) The following evaluations were done to assess the performance of gels comprising hyaluronic acid and taurolidine. Solution exposure of the hyaluronic acid/taurolidine hydrogels, immersed in early phase concentrations of 2 test microorganisms, were conducted. Additionally, the physical properties of the hydrogels were assessed to determine their shear/thixotropic properties.\n(§2) In this study, two strains of bacteria, Pseudomonas aeruginosa (PAO1) and Stapylococcus aureus strain SA 113), were evaluated for total kill of each of the strains after 4 and 24 hours of exposure. 20 μl of early phase culture of each strain was placed in 980 μl of each hyaluronic acid/taurolidine formulation. Samples of remaining bacteria concentrations were determined for the samples after 4 and 24 hours of exposure. Four controls were prepared, one control without hyaluronic acid and three other controls with different molecular weights of hyaluronic acid (low, medium and high MW) (all without taurolidine). These were compared against the same 3 different molecular weights of hyaluronic acid which contained taurolidine, with each hyaluronic acid MW containing target concentrations of 1.5, 3, or 6% taurolidine by weight in the hyaluronic acid hydrogel matrix (Table 1). […] These were also evaluated against a known antimicrobial, gentamicin."}, "[2]": {"system": "Stapylococcus aureus strain SA 113", "assay": "Solution exposure of HA/taurolidine hydrogels to living cultures (bacteria kill)", "format": "cell-based", "settings": "20 μl early phase culture in 980 μl formulation", "description": "as §1, §2"}}}
{"substance": "Gentamicin", "values": [{"measurement": "Remaining bacteria concentrations PA01 (4 hr)", "setting": "[1]; 4 hour exposure", "value": "0.00E+00"}, {"measurement": "Remaining bacteria concentrations PA01 (24 hr)", "setting": "[1]; 24 hour exposure", "value": "0.00E+00"}, {"measurement": "Remaining bacteria concentrations SA113 (4 hr)", "setting": "[2]; 4 hour exposure", "value": "3.77E+02"}, {"measurement": "Remaining bacteria concentrations SA113 (24 hr)", "setting": "[2]; 24 hour exposure", "value": "8.33E+00"}]}
